Our source for the IC50 values is the Kinase Knowledgebase extract (Sharma et al. 2016).

Several values for one entry are separate records, joined by “and”; a condition that tells them apart may be missing. Identical values can stand only once.

The assay deals with PIK3CD (Human) (UniProt O00329). The experiment in a line: Assessment of PIK3CD Kinase Activity.
Chain of PIK3CD (Human) (O00329 whole entry, looked up): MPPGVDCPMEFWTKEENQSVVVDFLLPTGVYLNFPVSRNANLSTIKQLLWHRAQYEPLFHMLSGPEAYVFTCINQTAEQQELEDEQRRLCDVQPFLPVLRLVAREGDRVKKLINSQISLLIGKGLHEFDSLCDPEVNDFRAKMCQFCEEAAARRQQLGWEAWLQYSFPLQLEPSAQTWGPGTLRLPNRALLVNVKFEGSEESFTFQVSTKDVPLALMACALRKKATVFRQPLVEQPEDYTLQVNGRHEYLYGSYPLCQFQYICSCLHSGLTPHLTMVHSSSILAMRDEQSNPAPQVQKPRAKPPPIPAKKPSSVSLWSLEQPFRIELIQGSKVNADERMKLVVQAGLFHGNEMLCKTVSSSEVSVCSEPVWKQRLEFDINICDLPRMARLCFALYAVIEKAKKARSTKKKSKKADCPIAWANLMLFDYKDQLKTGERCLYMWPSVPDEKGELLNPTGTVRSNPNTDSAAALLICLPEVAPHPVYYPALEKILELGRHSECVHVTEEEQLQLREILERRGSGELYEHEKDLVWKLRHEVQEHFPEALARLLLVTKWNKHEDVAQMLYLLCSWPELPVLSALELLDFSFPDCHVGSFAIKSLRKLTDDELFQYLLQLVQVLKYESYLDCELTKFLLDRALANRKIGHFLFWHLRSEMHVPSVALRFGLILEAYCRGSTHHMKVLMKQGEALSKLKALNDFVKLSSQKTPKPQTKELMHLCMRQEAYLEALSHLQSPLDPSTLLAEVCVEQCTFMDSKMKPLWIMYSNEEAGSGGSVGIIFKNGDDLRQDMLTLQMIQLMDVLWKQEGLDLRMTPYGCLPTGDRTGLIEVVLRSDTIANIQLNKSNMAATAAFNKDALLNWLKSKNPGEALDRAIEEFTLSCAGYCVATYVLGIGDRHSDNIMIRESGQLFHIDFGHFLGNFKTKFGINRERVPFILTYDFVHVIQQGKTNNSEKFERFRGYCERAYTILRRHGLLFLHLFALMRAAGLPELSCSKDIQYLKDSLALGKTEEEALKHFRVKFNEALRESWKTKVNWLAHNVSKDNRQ

As a reminder, the IC50 is the concentration at which inhibition is half-maximal. In turn, `COCC(=O)N1CCN(c2c(C(C)Nc3ncnc4[nH]cnc34)cc(Cl)c3cccnc23)CC1` (centres undefined) registered an IC50 of under 50 nM.

For the molecule `CC(Nc1ncnc2[nH]cnc12)c1cc(Cl)c2cccnc2c1N1CCC(c2ccccc2)C1` (centres undefined), the IC50 was in the range of 250 to 500 nM.

`Cc1nc(C(C)Nc2ncnc3[nH]cnc23)c(-c2cccc(F)c2)c2ccccc12` (centres undefined) gave a 50% inhibitory concentration (IC50) of 100 to 250 nM.

Take `CC(Nc1ncnc2[nH]cnc12)c1cc(Cl)c2cccnc2c1-c1ccccc1F` (centres undefined): the IC50 was 100 to 250 nM and < 50 nM.
